# Measured values as given in the NIST ThermoML archive (doi:10.1021/acs.jced.8b00715).
# Numbers after ± are expanded uncertainties.
# Experiments:
# [1] = wn = mass fraction of the nth substance listed; conditions: 298.15 K, 100 kPa, Liquid, Vibrating tube method
# [2] = refractive index (Na D-line) (dimensionless); wn = mass fraction of the nth substance listed; conditions: 298.15 K, 100 kPa, Liquid, Standard Abbe refractometry
compound,measurement,setting,value
[Cl-].[Na+] [sodium chloride] + O,mass density,[1]; w1 = 0.2645,1198.1 ± 5.6 kg/m3
same,refractive index,[2]; w1 = 0.2645,1.3796 ± 0.0015
O=S(=O)([O-])[O-].[Na+].[Na+] [sodium sulfate] + O,mass density,[1]; w1 = 0.219,1204.85 ± 14 kg/m3
same,refractive index,[2]; w1 = 0.219,1.3626 ± 0.002
O=B[O-].[Na+] [sodium metaborate] + O,mass density,[1]; w1 = 0.2259,1267.8 ± 1.1 kg/m3
same,refractive index,[2]; w1 = 0.2259,1.3872 ± 0.0007
